The source of these data is patent publication US5227488A, “Aza spiro decane and use thereof in treating CNS disorders” (Novo Nordisk A/S, priority 1989, dated 1993).

The target of assay [1] is T1, 5-HT2 (Rattus norvegicus, UniProt P14842).
T1 construct: from tissue; host or cells: rat brain: frontal cortex, striatum
Briefly: Receptor binding in vitro, 5-HT2 (3H-ketanserin displacement). As for the experimental part: (§1) Compounds of the general formula (I) were tested for binding to 5-HT receptors and compared with known ligands by the following procedure:
(§2) Rat brain tissue (as specified in the table hereinafter) was homogenized using a Polytron homogenizer. The final pellet was resuspended in 125 vol (tissue wet weight) of buffer.
(§3) In all assays incubation was carried out for 10 min at 37° C.
(§4) Detailed conditions for the receptor binding assay in vitro are tabulated below.

The target in assay [2] is T2, 5-HT1A (Rattus norvegicus, UniProt P19327).
T2 construct: from tissue; host or cells: rat brain: frontal cortex, hippocampus
T2 sequence (P19327 1-422): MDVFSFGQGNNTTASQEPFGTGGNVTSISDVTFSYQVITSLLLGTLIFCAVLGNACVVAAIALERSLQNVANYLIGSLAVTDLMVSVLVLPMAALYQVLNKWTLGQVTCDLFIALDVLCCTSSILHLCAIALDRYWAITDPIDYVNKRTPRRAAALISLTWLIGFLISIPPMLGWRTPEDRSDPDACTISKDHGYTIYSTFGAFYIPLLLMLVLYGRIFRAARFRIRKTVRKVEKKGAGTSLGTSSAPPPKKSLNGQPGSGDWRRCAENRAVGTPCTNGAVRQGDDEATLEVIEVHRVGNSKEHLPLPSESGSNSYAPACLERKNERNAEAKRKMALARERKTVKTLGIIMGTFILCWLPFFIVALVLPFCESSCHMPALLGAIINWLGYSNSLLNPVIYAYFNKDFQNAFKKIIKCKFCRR
As to the kind of experiment: Receptor binding in vitro, 5-HT1A (3H-8OH-DPAT displacement). The note with it: ligand 3H-8OH-DPAT 2 nM; rat frontal cortex, hippocampus. As for the experimental part:
as §1, §2, §3, §4

The target of assay [3] is T3, 5-HT1B (Rattus norvegicus, UniProt P28564).
T3 construct: from tissue; host or cells: rat brain: frontal cortex, hippocampus
T3 sequence (P28564 whole entry): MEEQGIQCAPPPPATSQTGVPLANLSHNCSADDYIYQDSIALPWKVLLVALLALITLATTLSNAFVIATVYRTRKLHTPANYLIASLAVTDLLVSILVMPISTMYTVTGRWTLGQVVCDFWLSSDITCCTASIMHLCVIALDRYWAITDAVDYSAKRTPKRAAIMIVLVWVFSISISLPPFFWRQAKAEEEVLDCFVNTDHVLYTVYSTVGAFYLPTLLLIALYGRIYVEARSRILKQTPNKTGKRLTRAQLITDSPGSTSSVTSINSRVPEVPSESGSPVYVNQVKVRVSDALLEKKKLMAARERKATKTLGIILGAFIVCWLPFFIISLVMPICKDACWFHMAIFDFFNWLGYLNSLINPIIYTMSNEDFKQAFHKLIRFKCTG
Briefly: Receptor binding in vitro, 5-HT1B (3H-5-HT displacement, with 50 nM 8-OH-DPAT). The procedure:
as §1, §2, §3
Labelling of the 5-HT1B receptor was complicated by the fact that the available ligand ^3 H-5-HT is nonselective.
as §4

Assay [4] has as its target Adenylatcyclase. As to the kind of experiment: Adenylatcyclase. The class given is biochemical.
Assay [5] concerns 5-HT1A receptors. Particulars: background; cited from earlier work.
In assay [6] the test system is 5-HT1 recognition sites. Particulars: background; Ann. Reports Med. Chem. 21 (1986), 42-43; cited from earlier work.
Assay [7] concerns 5-HT2 receptor subtype. Particulars: background; cited from earlier work.

Where a name gives a salt, the structure may show the parent alone. Where only a bound is given, the exact number is not on record here.

T1 sequence (P14842 whole entry): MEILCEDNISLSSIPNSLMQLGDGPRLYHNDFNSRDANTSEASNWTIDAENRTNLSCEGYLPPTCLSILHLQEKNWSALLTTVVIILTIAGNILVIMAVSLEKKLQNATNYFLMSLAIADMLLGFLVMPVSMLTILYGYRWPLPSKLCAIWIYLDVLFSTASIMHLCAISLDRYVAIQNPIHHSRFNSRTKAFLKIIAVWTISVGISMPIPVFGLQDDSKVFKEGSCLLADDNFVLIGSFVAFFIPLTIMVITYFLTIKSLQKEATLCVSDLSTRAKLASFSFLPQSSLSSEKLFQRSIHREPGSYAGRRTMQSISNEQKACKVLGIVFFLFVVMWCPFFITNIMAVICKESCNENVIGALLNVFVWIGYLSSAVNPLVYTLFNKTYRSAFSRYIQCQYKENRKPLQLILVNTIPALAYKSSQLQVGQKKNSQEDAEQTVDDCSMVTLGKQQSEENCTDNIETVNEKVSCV

One may read the IC50 as the concentration that gives 50% inhibition. The low end stands for greater potency in that assay, the high end for weaker potency in that assay. Consider `O=C1CC2(CCCC2)CC(=O)N1CCCCNCCSc1c[nH]c2ccccc12` [Example 3, 1-(4-(7,9-Dioxo-8-azaspiro[4,5]decan-8-yl)butyl-1-amino)2-(3-indolylthio)-ethane, oxalate], for which the IC50 in assay [1] worked out at 613 nM; in assay [2] it was 40 nM; in assay [3], 233 nM; in assay [4], 10 nM.

Consider `O=C1c2ccccc2S(=O)(=O)N1CCCCNCCSc1c[nH]c2ccccc12` [Example 6, 1-(4-(o-Sulfobenzimido)butyl-1-amino)-2-(3-indolylthio)ethane, oxalate], for which the 50% inhibitory concentration (IC50) in assay [1] is more than 1000 nM; in assay [2] it was 34 nM; in assay [3], more than 1000 nM; in assay [4], 20 nM.

Take `COc1ccc2[nH]cc(SCCNCCCCN3C(=O)CC4(CCCC4)CC3=O)c2c1` [Example 8, 1-(4-(7,9-Dioxo-8-azaspiro[4,5]decan-8-yl)butyl-1-amino)-2-(5-methoxy-3-indolylthio)-ethane, oxalate]: the IC50 is more than 1000 nM in assay [1], 33 nM in assay [2], more than 1000 nM in assay [3] and 30 nM in assay [4].

As for `CCCN(CCC)C1CCc2cccc(O)c2C1` (stereo not drawn) [Example 8-OH-DPAT, 8-hydroxy-2-(di-n-propylamino)tetralin, reference compound], the 50% inhibitory concentration (IC50) was more than 1000 nM in assay [1] and 80 nM in assay [4]. Moreover, the “affinity for 5-HT1A receptors (in words)” value in assay [5] was “binds with high affinity”.

As for `COc1ccc2[nH]cc(SCCNCCCCN3C(=O)c4ccccc4C3=O)c2c1` [Example 9, 1-(4-Phthalimidobutyl-1-amino)-2-(5-methoxy-3-indolylthio)-ethane, oxalate], the IC50 was more than 1000 nM in assay [1], 20 nM in assay [2], 156 nM in assay [3] and 140 nM in assay [4].

Regarding `COc1ccc2[nH]cc(SCCNCCCCN3C(=O)C4C5C=CC(C6CC56)C4C3=O)c2c1` (stereo not drawn) [Example 10], the IC50 is more than 1000 nM in assay [1], 8 nM in assay [2], more than 1000 nM in assay [3] and 23 nM in assay [4].

For the molecule `COc1ccc2[nH]cc(SCCNCCCCN3C(=O)C4CC=CCC4C3=O)c2c1` (stereo not drawn) [Example 12, 1-(4-(Cis-4-cyclohexen-1,2-dicarboximido)butyl-1-amino)-2-(5-methoxy-3-indolylthio)-ethane, oxalate], the IC50 was more than 1000 nM in assay [1], 17 nM in assay [2], more than 1000 nM in assay [3] and 240 nM in assay [4].

Regarding `COc1ccc2[nH]cc(OCCNCCCCN3C(=O)CC4(CCCC4)CC3=O)c2c1` [Example 23, 1-(4-(7,9-Dioxo-8-azaspiro[4,5]decan-8-yl)butyl-1-amino)-2-(5-methoxy-3-indolyloxy)-ethane, oxalate], the IC50 in assay [1] is more than 1000 nM; in assay [2] it was 0.6 nM; in assay [3], more than 1000 nM; in assay [4] it was 1.8 nM.

`COc1ccc2[nH]cc(OCCNCCCCN3C(=O)C4C5C=CC(C6C=CC65)C4C3=O)c2c1` (stereo not drawn) [Example 24, 1-(4-(1,3-Dioxo-4,7-etheno-1,3,3a,4,4a,6a,7,7a-octahydro-2H-cyclobut[f]isoindol-2-yl)butyl-1-amino)-2-(5-methoxy-3-indolyloxy)-ethane, oxalate]: the 50% inhibitory concentration (IC50) is more than 1000 nM in assay [1], 6.9 nM in assay [2], more than 1000 nM in assay [3] and 4 nM in assay [4].

As for `COc1ccc2[nH]cc(C3=CCNCC3)c2c1` [RU 24969], in assay [6], the “affinity for 5-HT1 recognition sites (in words)” value is on record as “high affinity”; the “discrimination between the 5-HT1A and 5-HT1B receptor subtypes (in words)” value is on record as “only limited capacity to discriminate”.

On to `O=C1CC2(CCCC2)CC(=O)N1CCCCN1CCN(c2ncccn2)CC1` [buspirone, reference compound], for which the half-inhibitory concentration (IC50) in assay [4] amounted to 125 nM.

For `CC1(C)CC(=O)N(CCCCN2CCN(c3ncccn3)CC2)C(=O)C1` [gepirone, reference compound], the figures for the IC50 in assay [1] and in assay [4] were more than 1000 nM and 1000 nM, respectively.

Consider `O=C1c2ccccc2S(=O)(=O)N1CCCCN1CCN(c2ncccn2)CC1` [ipsapirone, reference compound], for which the IC50 in assay [1] is more than 1000 nM; in assay [2] it was 25 nM; in assay [3] it was more than 1000 nM; in assay [4] it was 850 nM.

With `O=C(c1ccc(F)cc1)C1CCN(CCn2c(=O)[nH]c3ccccc3c2=O)CC1` [ketanserin], in assay [7], the “affinity for the 5-HT2 receptor subtype (in words)” value was “high affinity”.
